Patent US20220073981A1 (KOREA INSTITUTE OF SCIENCE AND TECHNOLOGY, priority 2020, published 2022)

System: BEAS-2B cell line
Experiment: Cytotoxicity test (MTT assay)
Assay type: cell-based, human
Conditions: 48 hours exposure
Procedure: An MTT assay was performed using the BEAS-2B cell line according to the method of Mossman et al. (J. Immunol. Methods, 65, 55-63, 1983).

For `CCC(C)=O` [2-butanone], the “concentration (IC5) showing the 95% survival rate” value was 22270 µM and the “concentration showing the 80% survival rate” value was 106210 µM.
